# Experimental data from ChEMBL document CHEMBL1201862, “PubChem BioAssay data set” (2004).
#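 Following 48 hours of exposure in 96-well plates, responses at five concentrations were used to interpolate endpoints linearly. The concentration for 50% growth inhibition is given as GI50.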 Active and inactive are the calls of the source. No stated cut-off is given here; in the data, active = GI50 up to about 1.1 µM and inactive = higher.
# Experiments:
# Test in all cases: NCI tumour cell line growth inhibition, 48 h
# NCI-H23 = test system: NCI-H23
# U-251 = test system: U-251
# HOP-92 = test system: HOP-92
# SNB-19 = test system: SNB-19
# K562 = test system: K562
# KM12 = test system: KM12
# CCRF-CEM = test system: CCRF-CEM
# SN12C = test system: SN12C
# BT-549 = test system: BT-549
# SF-539 = test system: SF-539
# M14 = test system: M14
# SF-268 = test system: SF-268
# NCI-H522 = test system: NCI-H522
# OVCAR-3 = test system: OVCAR-3
# OVCAR-5 = test system: OVCAR-5
# OVCAR-4 = test system: OVCAR-4
# MDA-MB-231 = test system: MDA-MB-231
# SK-MEL-2 = test system: SK-MEL-2
# HCC 2998 = test system: HCC 2998
# MOLT-4 = test system: MOLT-4
# CAKI-1 = test system: CAKI-1
# EKVX = test system: EKVX
# 786-0 = test system: 786-0
# NCI-H226 = test system: NCI-H226
# HT-29 = test system: HT-29
# UACC-257 = test system: UACC-257
# SR = test system: SR
# HOP-62 = test system: HOP-62
# UO-31 = test system: UO-31
# NCI-H460 = test system: NCI-H460
# TK-10 = test system: TK-10
# HCT-116 = test system: HCT-116
# ACHN = test system: ACHN
# SF-295 = test system: SF-295
# T47D = test system: T47D
# COLO 205 = test system: COLO 205
# PC-3 = test system: PC-3
# MCF7 = test system: MCF7
# MDA-N = test system: MDA-N
# SK-MEL-28 = test system: SK-MEL-28
# Hs-578T = test system: Hs-578T
# IGROV-1 = test system: IGROV-1
# SK-MEL-5 = test system: SK-MEL-5
# Malme-3M = test system: Malme-3M
# SW-620 = test system: SW-620
# SK-OV-3 = test system: SK-OV-3
# UACC-62 = test system: UACC-62
# LOX IMVI = test system: LOX IMVI
# NCI/ADR-RES = test system: NCI/ADR-RES
# DU-145 = test system: DU-145
# MDA-MB-435 = test system: MDA-MB-435
# OVCAR-8 = test system: OVCAR-8
# RPMI-8226 = test system: RPMI-8226
# A549 = test system: A549
# HCT-15 = test system: HCT-15
# SNB-75 = test system: SNB-75
# A498 = test system: A498
# RXF 393 = test system: RXF 393
compound,measurement,setting,value
c1ccc2c(c1)CCc1c-2n(CCN2CCOCC2)c2ccccc12,GI50,NCI-H23,> 100 µM (inactive)
same,GI50,U-251,> 100 µM (inactive)
same,GI50,HOP-92,17.8 µM (inactive)
same,GI50,SNB-19,> 100 µM (inactive)
same,GI50,K562,2.14 µM (inactive)
same,GI50,KM12,13.5 µM (inactive)
same,GI50,CCRF-CEM,21.2 µM (inactive)
same,GI50,SN12C,> 100 µM (inactive)
same,GI50,BT-549,> 100 µM (inactive)
same,GI50,SF-539,37.9 µM (inactive)
same,GI50,M14,44 µM (inactive)
same,GI50,SF-268,> 100 µM (inactive)
same,GI50,NCI-H522,13.3 µM (inactive)
same,GI50,OVCAR-3,> 100 µM (inactive)
same,GI50,OVCAR-5,> 100 µM (inactive)
same,GI50,OVCAR-4,> 100 µM (inactive)
same,GI50,MDA-MB-231,> 100 µM (inactive)
same,GI50,SK-MEL-2,11.8 µM (inactive)
same,GI50,HCC 2998,14.3 µM (inactive)
same,GI50,MOLT-4,29.9 µM (inactive)
same,GI50,CAKI-1,22.1 µM (inactive)
same,GI50,EKVX,> 100 µM (inactive)
same,GI50,786-0,> 100 µM (inactive)
same,GI50,NCI-H226,52.6 µM (inactive)
same,GI50,HT-29,13.2 µM (inactive)
same,GI50,UACC-257,32.9 µM (inactive)
same,GI50,SR,15 µM (inactive)
same,GI50,HOP-62,68.4 µM (inactive)
same,GI50,UO-31,> 100 µM (inactive)
same,GI50,NCI-H460,26.5 µM (inactive)
same,GI50,TK-10,> 100 µM (inactive)
same,GI50,HCT-116,> 100 µM (inactive)
same,GI50,ACHN,> 100 µM (inactive)
same,GI50,SF-295,28.3 µM (inactive)
same,GI50,T47D,> 100 µM (inactive)
same,GI50,COLO 205,37.4 µM (inactive)
same,GI50,PC-3,19.1 µM (inactive)
same,GI50,MCF7,> 100 µM (inactive)
same,GI50,MDA-N,> 100 µM (inactive)
same,GI50,SK-MEL-28,34.6 µM (inactive)
same,GI50,Hs-578T,12.8 µM (inactive)
same,GI50,IGROV-1,11.7 µM (inactive)
same,GI50,SK-MEL-5,18.8 µM (inactive)
same,GI50,Malme-3M,13.6 µM (inactive)
same,GI50,SW-620,> 100 µM (inactive)
same,GI50,SK-OV-3,26 µM (inactive)
same,GI50,UACC-62,> 100 µM (inactive)
same,GI50,LOX IMVI,> 100 µM (inactive)
same,GI50,NCI/ADR-RES,> 100 µM (inactive)
same,GI50,DU-145,> 100 µM (inactive)
same,GI50,MDA-MB-435,> 100 µM (inactive)
same,GI50,OVCAR-8,> 100 µM (inactive)
same,GI50,RPMI-8226,35.2 µM (inactive)
same,GI50,A549,> 100 µM (inactive)
same,GI50,HCT-15,> 100 µM
CN(Cc1cccc2ccsc12)/N=C\c1ccc(Cl)cc1,GI50,NCI-H23,28.4 µM (inactive)
same,GI50,U-251,> 100 µM (inactive)
same,GI50,HOP-92,> 100 µM (inactive)
same,GI50,SNB-19,> 100 µM (inactive)
same,GI50,K562,40.6 µM (inactive)
same,GI50,KM12,58.5 µM (inactive)
same,GI50,CCRF-CEM,31.3 µM (inactive)
same,GI50,SN12C,> 100 µM (inactive)
same,GI50,BT-549,> 100 µM (inactive)
same,GI50,M14,79.4 µM (inactive)
same,GI50,SF-268,> 100 µM (inactive)
same,GI50,NCI-H522,51.3 µM (inactive)
same,GI50,OVCAR-3,10.6 µM (inactive)
same,GI50,OVCAR-5,> 100 µM (inactive)
same,GI50,OVCAR-4,46.1 µM (inactive)
same,GI50,MDA-MB-231,> 100 µM (inactive)
same,GI50,HCC 2998,49.3 µM (inactive)
same,GI50,MOLT-4,25.5 µM (inactive)
same,GI50,CAKI-1,> 100 µM (inactive)
same,GI50,EKVX,50.4 µM (inactive)
same,GI50,786-0,> 100 µM (inactive)
same,GI50,NCI-H226,89.9 µM (inactive)
same,GI50,HT-29,26.7 µM (inactive)
same,GI50,UACC-257,18.8 µM (inactive)
same,GI50,SR,18.4 µM (inactive)
same,GI50,HOP-62,> 100 µM (inactive)
same,GI50,UO-31,78.3 µM (inactive)
same,GI50,NCI-H460,> 100 µM (inactive)
same,GI50,TK-10,> 100 µM (inactive)
same,GI50,HCT-116,28.6 µM (inactive)
same,GI50,SNB-75,57.1 µM (inactive)
same,GI50,ACHN,> 100 µM (inactive)
same,GI50,SF-295,30.9 µM (inactive)
same,GI50,T47D,49.5 µM (inactive)
same,GI50,COLO 205,74.8 µM (inactive)
same,GI50,PC-3,> 100 µM (inactive)
same,GI50,MCF7,32.7 µM (inactive)
same,GI50,MDA-N,39.2 µM (inactive)
same,GI50,SK-MEL-28,> 100 µM (inactive)
same,GI50,Hs-578T,> 100 µM (inactive)
same,GI50,IGROV-1,> 100 µM (inactive)
same,GI50,SK-MEL-5,15.5 µM (inactive)
same,GI50,Malme-3M,> 100 µM (inactive)
same,GI50,SW-620,80.2 µM (inactive)
same,GI50,SK-OV-3,> 100 µM (inactive)
same,GI50,UACC-62,> 100 µM (inactive)
same,GI50,LOX IMVI,> 100 µM (inactive)
same,GI50,NCI/ADR-RES,> 100 µM (inactive)
same,GI50,DU-145,> 100 µM (inactive)
same,GI50,MDA-MB-435,49.3 µM (inactive)
same,GI50,OVCAR-8,> 100 µM (inactive)
same,GI50,A498,93.3 µM (inactive)
same,GI50,RXF 393,> 100 µM (inactive)
same,GI50,A549,30.4 µM (inactive)
same,GI50,HCT-15,34.7 µM
